Source: ChEMBL document CHEMBL2176989, “Design, synthesis, and pharmacological evaluation of piperidin-4-yl amino aryl sulfonamides: novel, potent, selective, orally active, and brain penetrant 5-HT₆ receptor antagonists” (J Med Chem, 2012)
Activity calls are given as the source filed them. The calls are words filed in the database; no cut-off is given here.

Assays:
[1] = Oral bioavailability in fasted Wistar rat at 10 mg/kg; format: ADME, organism-based; settings: in vivo
[2] = Ratio of drug uptake in brain to plasma in Wistar rat at 10 mg/kg, po after 1 hr; format: ADME, organism-based; design: dose 10 mg/kg, route oral; settings: read-out: BPR
[3] = target: Voltage-gated inwardly rectifying potassium channel KCNH2 (Homo sapiens, UniProt Q12809); experiment: Displacement of [3H]astemizole from human ERG by microbeta scintillation counting
Chain of Voltage-gated inwardly rectifying potassium channel KCNH2 (Q12809 whole entry): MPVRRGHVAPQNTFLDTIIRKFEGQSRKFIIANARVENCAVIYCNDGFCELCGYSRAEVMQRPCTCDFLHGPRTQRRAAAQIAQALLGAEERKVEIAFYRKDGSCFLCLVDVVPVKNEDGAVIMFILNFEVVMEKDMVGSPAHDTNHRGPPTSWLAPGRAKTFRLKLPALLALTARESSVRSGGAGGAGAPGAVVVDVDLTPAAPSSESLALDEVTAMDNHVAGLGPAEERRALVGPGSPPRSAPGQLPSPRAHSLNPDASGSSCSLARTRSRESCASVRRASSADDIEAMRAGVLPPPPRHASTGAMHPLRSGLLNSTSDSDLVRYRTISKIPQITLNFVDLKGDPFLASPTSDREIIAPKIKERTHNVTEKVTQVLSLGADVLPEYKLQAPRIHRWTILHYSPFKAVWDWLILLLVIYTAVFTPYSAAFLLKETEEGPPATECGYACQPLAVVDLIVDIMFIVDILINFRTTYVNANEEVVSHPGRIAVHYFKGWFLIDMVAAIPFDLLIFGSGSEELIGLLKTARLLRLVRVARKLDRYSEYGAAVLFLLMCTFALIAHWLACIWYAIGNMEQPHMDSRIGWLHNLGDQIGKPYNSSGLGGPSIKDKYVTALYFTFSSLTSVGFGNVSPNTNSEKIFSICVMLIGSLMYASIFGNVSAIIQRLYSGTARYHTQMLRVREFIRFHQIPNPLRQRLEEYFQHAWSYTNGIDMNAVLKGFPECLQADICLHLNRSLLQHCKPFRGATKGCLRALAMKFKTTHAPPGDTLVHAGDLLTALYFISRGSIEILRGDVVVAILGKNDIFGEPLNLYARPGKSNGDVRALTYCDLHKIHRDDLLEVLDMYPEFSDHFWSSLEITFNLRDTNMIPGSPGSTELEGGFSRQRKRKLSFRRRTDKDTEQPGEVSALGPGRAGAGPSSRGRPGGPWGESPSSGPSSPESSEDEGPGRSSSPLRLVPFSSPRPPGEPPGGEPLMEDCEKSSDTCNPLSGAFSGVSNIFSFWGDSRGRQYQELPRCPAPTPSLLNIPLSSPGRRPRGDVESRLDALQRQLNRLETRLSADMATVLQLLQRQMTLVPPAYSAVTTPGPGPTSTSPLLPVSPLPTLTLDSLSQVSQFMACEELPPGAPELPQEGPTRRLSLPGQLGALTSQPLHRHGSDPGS

Rattus norvegicus [4] = experiment: Procognitive activity in Wistar rat assessed as reversal of time delay induced-memory deficit at 3 mg/kg, po by object recognition test; format: functional, organism-based; design: dose 3 mg/kg
Cytochrome P450 2D6 = Cytochrome P450 2D6 (Homo sapiens, UniProt P10635); experiment: Inhibition of CYP2D6 in human liver microsomes using dextromethorphan as substrate after 10 mins by LC-MS/MS analysis in presence of NADPH
Chain of Cytochrome P450 2D6 (P10635 whole entry): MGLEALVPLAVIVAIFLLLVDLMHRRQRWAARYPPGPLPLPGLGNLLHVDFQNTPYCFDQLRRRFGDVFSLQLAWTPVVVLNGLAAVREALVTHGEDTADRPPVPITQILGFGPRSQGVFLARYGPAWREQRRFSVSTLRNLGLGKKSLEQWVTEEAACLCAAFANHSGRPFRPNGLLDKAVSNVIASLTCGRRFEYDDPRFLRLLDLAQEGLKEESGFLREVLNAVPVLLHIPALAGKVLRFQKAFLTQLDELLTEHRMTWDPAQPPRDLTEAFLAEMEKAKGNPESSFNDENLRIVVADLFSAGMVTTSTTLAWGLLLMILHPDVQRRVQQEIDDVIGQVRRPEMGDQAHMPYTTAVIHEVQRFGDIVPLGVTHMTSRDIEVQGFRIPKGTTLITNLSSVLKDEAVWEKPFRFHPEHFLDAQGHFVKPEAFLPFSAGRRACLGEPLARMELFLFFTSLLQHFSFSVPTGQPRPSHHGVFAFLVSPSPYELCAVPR

[5] = target: 5-hydroxytryptamine receptor 4 (Homo sapiens, UniProt Q13639); experiment: Binding affinity to 5HT4 receptor
Chain of 5-hydroxytryptamine receptor 4 (Q13639 whole entry): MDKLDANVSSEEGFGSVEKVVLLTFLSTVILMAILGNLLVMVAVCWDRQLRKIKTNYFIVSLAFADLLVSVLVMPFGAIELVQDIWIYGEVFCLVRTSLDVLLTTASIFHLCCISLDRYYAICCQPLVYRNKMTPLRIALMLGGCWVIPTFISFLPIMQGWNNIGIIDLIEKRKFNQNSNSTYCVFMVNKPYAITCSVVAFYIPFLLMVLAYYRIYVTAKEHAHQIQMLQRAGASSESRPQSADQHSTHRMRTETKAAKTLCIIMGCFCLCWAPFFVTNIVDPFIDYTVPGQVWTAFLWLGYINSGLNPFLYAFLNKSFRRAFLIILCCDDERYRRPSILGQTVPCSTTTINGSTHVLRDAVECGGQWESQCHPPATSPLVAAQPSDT

[6] = AUC (0 to 24 hrs) in fasted Wistar rat at 10 mg/kg, po; format: ADME, organism-based; design: time < 24 hr, dose 10 mg/kg, route oral; settings: plasma
Rattus norvegicus [7] = experiment: Toxicity in po dosed Wistar rat assessed as phospholipidosis in multiple organs administered as repeated dose for 7 days; format: organism-based; settings: in vivo, 168 h
[8] = target: Sodium-dependent dopamine transporter (Homo sapiens, UniProt Q01959); experiment: Binding affinity to dopamine transporter
Chain of Sodium-dependent dopamine transporter (Q01959 whole entry): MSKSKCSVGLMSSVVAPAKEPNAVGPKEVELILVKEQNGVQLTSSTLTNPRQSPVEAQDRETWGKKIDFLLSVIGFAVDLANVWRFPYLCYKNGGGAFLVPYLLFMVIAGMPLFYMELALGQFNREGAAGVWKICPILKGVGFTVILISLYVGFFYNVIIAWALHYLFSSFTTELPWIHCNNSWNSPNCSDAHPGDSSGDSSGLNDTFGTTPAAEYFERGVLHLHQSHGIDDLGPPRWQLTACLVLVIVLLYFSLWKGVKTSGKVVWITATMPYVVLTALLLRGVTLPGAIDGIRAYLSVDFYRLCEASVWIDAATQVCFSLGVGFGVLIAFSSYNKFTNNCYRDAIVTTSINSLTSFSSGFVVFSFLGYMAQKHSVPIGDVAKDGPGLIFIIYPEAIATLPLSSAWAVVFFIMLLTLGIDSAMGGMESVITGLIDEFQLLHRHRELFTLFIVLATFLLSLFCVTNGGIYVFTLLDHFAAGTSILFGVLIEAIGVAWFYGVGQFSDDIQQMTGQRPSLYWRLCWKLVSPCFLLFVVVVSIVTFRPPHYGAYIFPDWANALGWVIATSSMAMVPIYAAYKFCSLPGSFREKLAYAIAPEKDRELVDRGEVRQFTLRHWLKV

[9] = target: 5-hydroxytryptamine receptor 7 (Homo sapiens, UniProt P34969); experiment: Binding affinity to 5HT7 receptor
[10] = target: T1, 5-hydroxytryptamine receptor 1A (Homo sapiens, UniProt P08908); experiment: Binding affinity to 5HT1A receptor
T1 sequence (P08908 whole entry): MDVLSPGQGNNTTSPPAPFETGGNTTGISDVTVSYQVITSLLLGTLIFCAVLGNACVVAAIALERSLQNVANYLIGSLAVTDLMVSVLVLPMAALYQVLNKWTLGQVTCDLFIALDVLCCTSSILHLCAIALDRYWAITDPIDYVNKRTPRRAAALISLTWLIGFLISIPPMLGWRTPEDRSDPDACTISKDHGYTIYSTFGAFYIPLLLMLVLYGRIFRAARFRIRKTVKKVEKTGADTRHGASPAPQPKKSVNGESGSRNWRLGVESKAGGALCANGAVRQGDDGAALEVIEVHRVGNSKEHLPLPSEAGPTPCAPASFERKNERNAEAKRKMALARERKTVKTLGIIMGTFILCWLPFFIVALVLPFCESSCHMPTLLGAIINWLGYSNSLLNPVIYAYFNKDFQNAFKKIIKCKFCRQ

[11] = target: T2, Alpha-1B adrenergic receptor (Homo sapiens, UniProt P35368); experiment: Binding affinity to adrenergic alpha1B receptor
T2 sequence (P35368 whole entry): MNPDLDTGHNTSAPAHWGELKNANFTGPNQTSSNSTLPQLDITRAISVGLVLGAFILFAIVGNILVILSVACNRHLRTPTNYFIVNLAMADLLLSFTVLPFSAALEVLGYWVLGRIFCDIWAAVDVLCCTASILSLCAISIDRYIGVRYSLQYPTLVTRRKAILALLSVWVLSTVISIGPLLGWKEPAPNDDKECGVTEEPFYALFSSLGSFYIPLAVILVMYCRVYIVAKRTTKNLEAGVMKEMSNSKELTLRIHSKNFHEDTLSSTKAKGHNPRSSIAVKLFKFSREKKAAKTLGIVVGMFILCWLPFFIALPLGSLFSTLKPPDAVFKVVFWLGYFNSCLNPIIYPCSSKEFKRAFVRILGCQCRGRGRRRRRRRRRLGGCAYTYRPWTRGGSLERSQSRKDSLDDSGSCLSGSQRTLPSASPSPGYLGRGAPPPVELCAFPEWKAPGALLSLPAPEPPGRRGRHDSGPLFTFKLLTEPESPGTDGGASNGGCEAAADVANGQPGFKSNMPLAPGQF

[12] = Tmax in fasted Wistar rat at 10 mg/kg, po; format: ADME, organism-based; design: dose 10 mg/kg, route oral; settings: in vivo
[13] = Cmax in fasted Wistar rat at 10 mg/kg, po; format: ADME, organism-based; design: dose 10 mg/kg, route oral; settings: in vivo
[14] = target: T3, 5-hydroxytryptamine receptor 3A (Homo sapiens, UniProt P46098); experiment: Binding affinity to 5HT3 receptor
T3 sequence (P46098 whole entry): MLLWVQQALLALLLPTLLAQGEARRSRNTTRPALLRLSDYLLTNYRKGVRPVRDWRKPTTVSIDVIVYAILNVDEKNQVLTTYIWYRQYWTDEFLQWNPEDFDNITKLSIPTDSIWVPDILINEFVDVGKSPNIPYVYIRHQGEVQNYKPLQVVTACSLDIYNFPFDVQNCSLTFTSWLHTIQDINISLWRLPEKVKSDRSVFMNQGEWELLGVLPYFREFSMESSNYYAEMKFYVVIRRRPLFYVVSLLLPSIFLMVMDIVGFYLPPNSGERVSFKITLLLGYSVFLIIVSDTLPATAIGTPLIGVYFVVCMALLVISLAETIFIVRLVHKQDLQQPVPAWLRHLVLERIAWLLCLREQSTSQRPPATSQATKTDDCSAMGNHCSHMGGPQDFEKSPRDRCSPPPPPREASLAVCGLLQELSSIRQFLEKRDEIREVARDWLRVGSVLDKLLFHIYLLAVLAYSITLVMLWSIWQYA

Histamine H1 receptor = Histamine H1 receptor (Homo sapiens, UniProt P35367); experiment: Binding affinity to histamine H1 receptor
Chain of Histamine H1 receptor (P35367 whole entry): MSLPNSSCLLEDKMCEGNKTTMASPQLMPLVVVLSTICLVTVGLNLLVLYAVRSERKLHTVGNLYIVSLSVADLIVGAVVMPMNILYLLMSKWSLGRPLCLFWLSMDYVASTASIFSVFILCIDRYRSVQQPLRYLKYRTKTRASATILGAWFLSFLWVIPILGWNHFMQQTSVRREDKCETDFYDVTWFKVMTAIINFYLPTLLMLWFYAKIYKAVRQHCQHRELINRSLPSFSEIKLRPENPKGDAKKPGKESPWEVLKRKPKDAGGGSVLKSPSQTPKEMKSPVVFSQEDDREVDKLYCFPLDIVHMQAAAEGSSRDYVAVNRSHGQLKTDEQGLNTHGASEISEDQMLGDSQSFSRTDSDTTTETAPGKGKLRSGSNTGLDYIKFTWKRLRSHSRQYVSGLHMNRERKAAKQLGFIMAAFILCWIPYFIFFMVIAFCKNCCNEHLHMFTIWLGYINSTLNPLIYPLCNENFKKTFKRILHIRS

D(2) dopamine receptor = D(2) dopamine receptor (Homo sapiens, UniProt P14416); experiment: Binding affinity to dopamine D2 receptor
Chain of D(2) dopamine receptor (P14416 whole entry): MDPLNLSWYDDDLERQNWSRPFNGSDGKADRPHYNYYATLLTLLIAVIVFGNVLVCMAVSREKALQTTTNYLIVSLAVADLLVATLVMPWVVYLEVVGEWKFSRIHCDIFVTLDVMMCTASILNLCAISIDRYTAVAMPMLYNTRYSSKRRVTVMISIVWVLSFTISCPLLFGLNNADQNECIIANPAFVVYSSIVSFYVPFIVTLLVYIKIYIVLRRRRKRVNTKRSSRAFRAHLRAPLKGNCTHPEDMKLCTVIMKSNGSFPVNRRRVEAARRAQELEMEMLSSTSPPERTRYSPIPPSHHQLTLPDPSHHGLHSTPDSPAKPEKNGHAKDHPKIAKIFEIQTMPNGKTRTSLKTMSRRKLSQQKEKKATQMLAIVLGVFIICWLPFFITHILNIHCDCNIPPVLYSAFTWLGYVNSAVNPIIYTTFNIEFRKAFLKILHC

Cytochrome P450 3A4 = Cytochrome P450 3A4 (Homo sapiens, UniProt P08684); experiment: Inhibition of CYP3A4 in human liver microsomes using midazolam as substrate after 5 mins by LC-MS/MS analysis in presence of NADPH
Chain of Cytochrome P450 3A4 (P08684 whole entry): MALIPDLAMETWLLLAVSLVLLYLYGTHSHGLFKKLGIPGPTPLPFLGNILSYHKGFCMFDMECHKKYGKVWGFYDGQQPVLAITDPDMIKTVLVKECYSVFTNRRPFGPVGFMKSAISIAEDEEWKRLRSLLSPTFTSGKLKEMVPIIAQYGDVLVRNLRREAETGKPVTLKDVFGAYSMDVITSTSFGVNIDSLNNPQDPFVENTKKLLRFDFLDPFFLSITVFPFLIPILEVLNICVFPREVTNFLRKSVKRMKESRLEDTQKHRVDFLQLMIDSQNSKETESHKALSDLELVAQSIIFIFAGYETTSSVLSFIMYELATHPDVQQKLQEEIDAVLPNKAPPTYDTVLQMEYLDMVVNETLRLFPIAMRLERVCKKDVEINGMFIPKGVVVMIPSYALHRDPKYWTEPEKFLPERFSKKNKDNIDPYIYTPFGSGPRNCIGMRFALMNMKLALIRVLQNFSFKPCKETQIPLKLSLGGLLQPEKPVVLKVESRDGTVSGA

[15] = AUC (0 to 24 hrs) in Wistar rat at 10 mg/kg, iv; format: ADME, organism-based; design: time < 24 hr, dose 10 mg/kg, route intravenous; settings: plasma
[16] = Half life in Wistar rat at 10 mg/kg, iv; format: ADME, organism-based; design: dose 10 mg/kg, route intravenous; settings: in vivo
[17] = target: 5-hydroxytryptamine receptor 2A (Homo sapiens, UniProt P28223); experiment: Binding affinity to 5HT2A receptor
Chain of 5-hydroxytryptamine receptor 2A (P28223 whole entry): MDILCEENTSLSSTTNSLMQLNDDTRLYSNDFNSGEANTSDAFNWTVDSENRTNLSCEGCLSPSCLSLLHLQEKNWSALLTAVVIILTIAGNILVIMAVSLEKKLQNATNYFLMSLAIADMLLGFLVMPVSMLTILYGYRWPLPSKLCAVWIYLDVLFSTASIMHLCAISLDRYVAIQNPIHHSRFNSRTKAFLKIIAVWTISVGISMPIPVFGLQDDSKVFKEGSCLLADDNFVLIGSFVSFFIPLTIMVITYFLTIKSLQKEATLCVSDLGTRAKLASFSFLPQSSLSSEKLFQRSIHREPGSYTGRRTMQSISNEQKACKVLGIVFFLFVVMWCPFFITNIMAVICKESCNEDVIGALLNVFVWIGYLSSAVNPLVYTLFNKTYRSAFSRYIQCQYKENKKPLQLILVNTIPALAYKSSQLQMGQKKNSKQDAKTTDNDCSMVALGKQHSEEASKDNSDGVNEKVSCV

[18] = Drug metabolism in Wistar rat liver microsomes at 2.5 uM at 30 mins by LC-MS/MS analysis; format: ADME, Microsome; settings: read-out: Drug metabolism
[19] = target: 5-hydroxytryptamine receptor 6 (Homo sapiens) (UniProt P50406); experiment: Antagonist activity at human recombinant 5HT6 receptor expressed in CHO cells assessed as inhibition of 5HT-induced luciferase activity after 4 hrs by reporter gene assay relative to control; format: functional, cell-based
Chain of 5-hydroxytryptamine receptor 6 (Homo sapiens) (P50406 whole entry): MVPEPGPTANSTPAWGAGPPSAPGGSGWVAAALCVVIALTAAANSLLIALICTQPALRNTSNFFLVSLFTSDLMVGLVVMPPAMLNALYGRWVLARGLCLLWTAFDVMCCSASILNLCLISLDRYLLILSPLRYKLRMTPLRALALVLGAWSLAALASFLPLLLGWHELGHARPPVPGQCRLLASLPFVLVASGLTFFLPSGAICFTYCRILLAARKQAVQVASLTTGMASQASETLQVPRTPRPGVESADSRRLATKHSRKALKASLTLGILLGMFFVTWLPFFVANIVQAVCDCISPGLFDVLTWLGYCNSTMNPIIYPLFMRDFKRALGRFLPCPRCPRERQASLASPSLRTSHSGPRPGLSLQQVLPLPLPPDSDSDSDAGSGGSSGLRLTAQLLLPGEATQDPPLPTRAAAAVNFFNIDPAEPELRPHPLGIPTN

Rattus norvegicus [20] = experiment: Procognitive activity in Wistar rat assessed as reversal of time delay induced-memory deficit at 1 mg/kg, po by object recognition test; format: functional, organism-based; design: dose 1 mg/kg
[21] = target: Sodium-dependent serotonin transporter (Homo sapiens, UniProt P31645); experiment: Binding affinity to SERT
[22] = target: T4, 5-hydroxytryptamine receptor 2C (Homo sapiens, UniProt P28335); experiment: Binding affinity to 5HT2C receptor
T4 sequence (P28335 whole entry): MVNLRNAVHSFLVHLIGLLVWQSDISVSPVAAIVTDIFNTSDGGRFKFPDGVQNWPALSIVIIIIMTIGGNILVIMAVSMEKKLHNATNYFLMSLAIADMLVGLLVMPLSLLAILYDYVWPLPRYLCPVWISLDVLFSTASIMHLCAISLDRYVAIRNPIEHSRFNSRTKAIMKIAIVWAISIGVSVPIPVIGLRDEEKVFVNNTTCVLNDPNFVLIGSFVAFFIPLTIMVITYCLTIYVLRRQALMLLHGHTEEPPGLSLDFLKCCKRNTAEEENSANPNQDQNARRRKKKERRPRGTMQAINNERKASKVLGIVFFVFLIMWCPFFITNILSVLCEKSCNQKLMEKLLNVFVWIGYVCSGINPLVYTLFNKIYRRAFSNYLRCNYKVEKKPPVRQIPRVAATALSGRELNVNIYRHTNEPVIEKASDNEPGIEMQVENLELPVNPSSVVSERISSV

[23] = Clearance in Wistar rat at 10 mg/kg, iv; format: ADME, organism-based; design: dose 10 mg/kg, route intravenous; settings: in vivo
[24] = Drug metabolism in human liver microsomes at 2.5 uM at 30 mins by LC-MS/MS analysis; format: ADME, Microsome; settings: read-out: Drug metabolism
[25] = Apparent volume of distribution in Wistar rat at 10 mg/kg, iv; format: ADME, organism-based; design: dose 10 mg/kg, route intravenous; settings: in vivo, read-out: Vz
[26] = target: 5-hydroxytryptamine receptor 6 (Homo sapiens) (UniProt P50406); experiment: Antagonist activity at human recombinant 5HT6 receptor expressed in CHO cells assessed as inhibition of 5HT-induced luciferase activity after 4 hrs by reporter gene assay; format: functional, cell-based

With `COc1ccc(S(=O)(=O)n2cc(C)c3cc(Cl)ccc32)cc1NC1CCN(C)CC1` as the compound, how does the bioavailability [1] read?
The bioavailability was 75%.

What about the Kp at 1 h [2] of the same compound?
Its Kp at 1 h is 3.8.

And the Ki [3]?
Its Ki is 800 nM.

And the Activity (Rattus norvegicus [4])?
Its Activity is “Active”.

What about the IC50 (Cytochrome P450 2D6) of the same compound?
Its IC50 is 14700 nM.

And the EC50 [5]?
The EC50 was greater than 10000 nM.

What about the AUC(0-t) at 24 h [6] of the same compound?
Its AUC(0-t) at 24 h is 2090 ng·h/mL.

What about the Activity (Rattus norvegicus [7]) of the same compound?
The Activity was “Toxic”.

What about the Ki [8] of the same compound?
The Ki was 2900 nM.

And the Ki [9]?
Its Ki is 6370 nM.

And the EC50 [10]?
Its EC50 is greater than 1000 nM.

What about the Ki [11] of the same compound?
Its Ki is 955 nM.

And the Tmax [12]?
Its Tmax is 1.67 h.

What about the Cmax [13] of the same compound?
The Cmax was 296 ng/mL.

And the IC50 [14]?
The IC50 was greater than 10000 nM.

What about the Ki (Histamine H1 receptor) of the same compound?
Its Ki is 682 nM.

What about the Ki (D(2) dopamine receptor) of the same compound?
Its Ki is 303 nM.

What about the IC50 (Cytochrome P450 3A4) of the same compound?
The IC50 was 6460 nM.

And the AUC(0-t) at 24 h [15]?
Its AUC(0-t) at 24 h is 2760 ng·h/mL.

And the half-life [16]?
Its half-life is 2.2 h.

What about the Ki [17] of the same compound?
The Ki was 536 nM.

What about the metabolised at 0.5 h, 2.5 µM [18] of the same compound?
The metabolised at 0.5 h, 2.5 µM was 40%.

And the Imax [19]?
The Imax was 100%.

And the Activity (Rattus norvegicus [20])?
The Activity was “Active”.

And the Ki [21]?
The Ki was 1940 nM.

And the Ki [22]?
The Ki was 3120 nM.

What about the clearance [23] of the same compound?
Its clearance is 59 mL/min/kg.

What about the metabolised at 0.5 h, 2.5 µM [24] of the same compound?
The metabolised at 0.5 h, 2.5 µM was 0%.

What about the Vd [25] of the same compound?
The Vd was 11 L/kg.

What about the Kb [26] of the same compound?
Its Kb is 0.02 nM.
